Test results as given in patent US9546156B2, “N-bicyclic aryl,N'-pyrazolyl urea, thiourea, guanidine cyanoguanidine compounds as TrkA kinase inhibitors” (Array BioPharma Inc., priority 2012, dated 2017).

Experiments:
Assay in all cases: Off-target kinase profiling (KinaseProfiler)
Format in all cases: biochemical
Settings in all cases: 10 μM, ATP near Km
LKB1 = biological target: T1, LKB1 (Homo sapiens, UniProt Q15831)
T1 construct: purchased Millipore, Inc. (KinaseProfiler service)
How it was run: (§1)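 Duplicate reactions per kinase contained 10 μM compound and ATP at approximately the enzyme-specific Km; the mean remaining activity, given as percent of control, is listed.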

Plk2 = biological target: T2, Plk2 (Homo sapiens, UniProt Q9NYY3)
T2 construct: purchased Millipore, Inc. (KinaseProfiler service)
How it was run: as §1

TAK1 = biological target: T3, TAK1 (Homo sapiens, UniProt O43318)
T3 construct: purchased Millipore, Inc. (KinaseProfiler service)
How it was run: as §1

CSK = biological target: T4, CSK (Homo sapiens, UniProt P41240)
T4 construct: purchased Millipore, Inc. (KinaseProfiler service)
How it was run: as §1

CDK9/cyclinT1 = biological target: T5, CDK9/cyclinT1 (Homo sapiens, UniProt P50750)
T5 construct: purchased Millipore, Inc. (KinaseProfiler service)
How it was run: as §1

CK2 = biological target: T6, CK2 (Homo sapiens, UniProt P68400)
T6 construct: purchased Millipore, Inc. (KinaseProfiler service)
How it was run: as §1

MKK4_m = biological target: T7, MKK4_m (Mus musculus, UniProt P47809)
T7 construct: purchased Millipore, Inc. (KinaseProfiler service)
How it was run: as §1

FAK2 = biological target: T8, FAK2 (Homo sapiens, UniProt Q14289)
T8 construct: purchased Millipore, Inc. (KinaseProfiler service)
How it was run: as §1

CK1gamma2 = biological target: T9, CK1gamma2 (Homo sapiens, UniProt P78368)
T9 construct: purchased Millipore, Inc. (KinaseProfiler service)
How it was run: as §1

TLK2 = biological target: T10, TLK2 (Homo sapiens, UniProt Q86UE8)
T10 construct: purchased Millipore, Inc. (KinaseProfiler service)
How it was run: as §1

DAPK3 = biological target: T11, DAPK3 (Homo sapiens, UniProt O43293)
T11 construct: purchased Millipore, Inc. (KinaseProfiler service)
How it was run: as §1

FAK = biological target: T12, FAK (Homo sapiens, UniProt Q05397)
T12 construct: purchased Millipore, Inc. (KinaseProfiler service)
How it was run: as §1

CK1_y = tested on: CK1_y
How it was run: as §1

MRCKalpha = biological target: T13, MRCKalpha (Homo sapiens, UniProt Q5VT25)
T13 construct: purchased Millipore, Inc. (KinaseProfiler service)
How it was run: as §1

STK33 = biological target: T14, STK33 (Homo sapiens, UniProt Q9BYT3)
T14 construct: purchased Millipore, Inc. (KinaseProfiler service)
How it was run: as §1

PTK5 = biological target: T15, PTK5 (Homo sapiens, UniProt P42685)
T15 construct: purchased Millipore, Inc. (KinaseProfiler service)
How it was run: as §1

CDK7/cyclinH/MAT1 = biological target: T16, CDK7/cyclinH/MAT1 (Homo sapiens, UniProt P50613)
T16 construct: purchased Millipore, Inc. (KinaseProfiler service)
How it was run: as §1

AKT2 = biological target: T17, AKT2 (Homo sapiens, UniProt P31751)
T17 construct: purchased Millipore, Inc. (KinaseProfiler service)
How it was run: as §1

AKT3 = biological target: T18, AKT3 (Homo sapiens, UniProt Q9Y243)
T18 construct: purchased Millipore, Inc. (KinaseProfiler service)
How it was run: as §1

eEF-2K = biological target: T19, eEF-2K (Homo sapiens, UniProt O00418)
T19 construct: purchased Millipore, Inc. (KinaseProfiler service)
How it was run: as §1

HIPK3 = biological target: T20, HIPK3 (Homo sapiens, UniProt Q9H422)
T20 construct: purchased Millipore, Inc. (KinaseProfiler service)
How it was run: as §1

Flt1 = biological target: T21, Flt1 (Homo sapiens, UniProt P17948)
T21 construct: purchased Millipore, Inc. (KinaseProfiler service)
How it was run: as §1

Txk = biological target: T22, Txk (Homo sapiens, UniProt P42681)
T22 construct: purchased Millipore, Inc. (KinaseProfiler service)
How it was run: as §1

SRPK1 = biological target: T23, SRPK1 (Homo sapiens, UniProt Q96SB4)
T23 construct: purchased Millipore, Inc. (KinaseProfiler service)
How it was run: as §1

SRC = biological target: T24, SRC (Homo sapiens, UniProt P12931)
T24 construct: purchased Millipore, Inc. (KinaseProfiler service)
How it was run: as §1

CAMK2d = biological target: T25, CAMK2d (Homo sapiens, UniProt Q13557)
T25 construct: purchased Millipore, Inc. (KinaseProfiler service)
How it was run: as §1

Met = biological target: T26, Met (Homo sapiens, UniProt P08581)
T26 construct: purchased Millipore, Inc. (KinaseProfiler service)
How it was run: as §1

PDK1 = biological target: T27, PDK1 (Homo sapiens, UniProt O15530)
T27 construct: purchased Millipore, Inc. (KinaseProfiler service)
How it was run: as §1

CDK3/cyclinE = biological target: T28, CDK3/cyclinE (Homo sapiens, UniProt Q00526)
T28 construct: purchased Millipore, Inc. (KinaseProfiler service)
How it was run: as §1

DMPK = biological target: T29, DMPK (Homo sapiens, UniProt Q09013)
T29 construct: purchased Millipore, Inc. (KinaseProfiler service)
How it was run: as §1

PKCdelta = biological target: T30, PKCdelta (Homo sapiens, UniProt Q05655)
T30 construct: purchased Millipore, Inc. (KinaseProfiler service)
How it was run: as §1

PAK2 = biological target: T31, PAK2 (Homo sapiens, UniProt Q13177)
T31 construct: purchased Millipore, Inc. (KinaseProfiler service)
How it was run: as §1

ERK1 = biological target: T32, ERK1 (Homo sapiens, UniProt P27361)
T32 construct: purchased Millipore, Inc. (KinaseProfiler service)
How it was run: as §1

PrKX = biological target: T33, PrKX (Homo sapiens, UniProt P51817)
T33 construct: purchased Millipore, Inc. (KinaseProfiler service)
How it was run: as §1

JNK3 = biological target: T34, JNK3 (Homo sapiens, UniProt P53779)
T34 construct: purchased Millipore, Inc. (KinaseProfiler service)
How it was run: as §1

PDGFRalpha = biological target: T35, PDGFRalpha (Homo sapiens, UniProt P16234)
T35 construct: purchased Millipore, Inc. (KinaseProfiler service)
How it was run: as §1

CDK6/cyclinD3 = biological target: T36, CDK6/cyclinD3 (Homo sapiens, UniProt Q00534)
T36 construct: purchased Millipore, Inc. (KinaseProfiler service)
How it was run: as §1

ZAP-70 = biological target: T37, ZAP-70 (Homo sapiens, UniProt P43403)
T37 construct: purchased Millipore, Inc. (KinaseProfiler service)
How it was run: as §1

Ron = biological target: T38, Ron (Homo sapiens, UniProt Q04912)
T38 construct: purchased Millipore, Inc. (KinaseProfiler service)
How it was run: as §1

MAPKAP-K5 = biological target: T39, MAPKAP-K5 (Homo sapiens, UniProt Q8IW41)
T39 construct: purchased Millipore, Inc. (KinaseProfiler service)
How it was run: as §1

ULK2 = biological target: T40, ULK2 (Homo sapiens, UniProt Q8IYT8)
T40 construct: purchased Millipore, Inc. (KinaseProfiler service)
How it was run: as §1

T14 sequence (Q9BYT3 whole entry): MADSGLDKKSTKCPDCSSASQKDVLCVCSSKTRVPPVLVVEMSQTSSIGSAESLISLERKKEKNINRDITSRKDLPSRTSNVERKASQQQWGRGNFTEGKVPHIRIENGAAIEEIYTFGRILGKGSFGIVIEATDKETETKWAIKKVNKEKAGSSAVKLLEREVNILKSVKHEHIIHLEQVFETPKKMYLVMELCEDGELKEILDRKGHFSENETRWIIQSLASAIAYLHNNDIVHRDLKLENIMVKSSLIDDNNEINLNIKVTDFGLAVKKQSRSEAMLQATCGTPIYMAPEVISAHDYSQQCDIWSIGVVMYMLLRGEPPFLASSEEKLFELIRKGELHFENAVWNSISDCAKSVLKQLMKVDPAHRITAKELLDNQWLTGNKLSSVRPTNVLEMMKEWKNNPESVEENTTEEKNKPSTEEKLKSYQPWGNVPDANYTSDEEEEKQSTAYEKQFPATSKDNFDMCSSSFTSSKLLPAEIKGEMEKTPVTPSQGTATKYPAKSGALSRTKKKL
T39 sequence (Q8IW41 whole entry): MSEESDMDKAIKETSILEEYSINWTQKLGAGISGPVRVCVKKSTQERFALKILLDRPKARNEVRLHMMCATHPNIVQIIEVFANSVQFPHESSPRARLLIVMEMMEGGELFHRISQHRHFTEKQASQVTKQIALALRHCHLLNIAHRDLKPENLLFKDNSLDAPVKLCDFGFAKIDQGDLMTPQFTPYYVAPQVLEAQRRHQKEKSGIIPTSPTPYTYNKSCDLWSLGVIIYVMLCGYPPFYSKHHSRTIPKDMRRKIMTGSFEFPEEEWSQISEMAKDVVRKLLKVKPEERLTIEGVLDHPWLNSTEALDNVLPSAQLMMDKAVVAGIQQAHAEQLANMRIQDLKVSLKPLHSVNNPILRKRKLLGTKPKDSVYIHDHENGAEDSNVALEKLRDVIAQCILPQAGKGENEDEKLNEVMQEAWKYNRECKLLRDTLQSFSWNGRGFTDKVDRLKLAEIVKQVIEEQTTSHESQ
T1 sequence (Q15831 whole entry): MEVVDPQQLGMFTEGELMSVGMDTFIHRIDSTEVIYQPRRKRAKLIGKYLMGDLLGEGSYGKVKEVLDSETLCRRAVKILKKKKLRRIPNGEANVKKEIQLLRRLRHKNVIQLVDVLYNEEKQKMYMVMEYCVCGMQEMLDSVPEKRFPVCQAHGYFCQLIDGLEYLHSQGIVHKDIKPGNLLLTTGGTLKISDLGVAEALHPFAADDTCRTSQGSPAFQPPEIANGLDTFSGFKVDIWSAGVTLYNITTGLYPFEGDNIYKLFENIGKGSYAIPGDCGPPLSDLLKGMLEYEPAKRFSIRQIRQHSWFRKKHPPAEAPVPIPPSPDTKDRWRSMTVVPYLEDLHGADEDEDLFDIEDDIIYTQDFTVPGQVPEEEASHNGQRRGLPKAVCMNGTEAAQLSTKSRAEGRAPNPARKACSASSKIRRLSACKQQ
T1 sequence (Q7RTN6 whole entry partner): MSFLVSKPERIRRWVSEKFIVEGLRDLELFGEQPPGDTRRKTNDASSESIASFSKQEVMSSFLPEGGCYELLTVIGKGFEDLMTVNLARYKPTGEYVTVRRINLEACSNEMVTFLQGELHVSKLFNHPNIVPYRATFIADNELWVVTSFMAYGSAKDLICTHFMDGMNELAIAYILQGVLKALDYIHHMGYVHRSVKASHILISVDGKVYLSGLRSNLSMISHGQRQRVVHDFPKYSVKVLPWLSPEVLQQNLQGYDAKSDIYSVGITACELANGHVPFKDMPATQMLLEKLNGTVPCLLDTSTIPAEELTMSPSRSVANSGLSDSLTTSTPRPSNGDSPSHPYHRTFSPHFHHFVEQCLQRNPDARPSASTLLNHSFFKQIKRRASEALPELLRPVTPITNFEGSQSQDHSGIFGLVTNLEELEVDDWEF
T1 sequence (Q9Y376 whole entry partner): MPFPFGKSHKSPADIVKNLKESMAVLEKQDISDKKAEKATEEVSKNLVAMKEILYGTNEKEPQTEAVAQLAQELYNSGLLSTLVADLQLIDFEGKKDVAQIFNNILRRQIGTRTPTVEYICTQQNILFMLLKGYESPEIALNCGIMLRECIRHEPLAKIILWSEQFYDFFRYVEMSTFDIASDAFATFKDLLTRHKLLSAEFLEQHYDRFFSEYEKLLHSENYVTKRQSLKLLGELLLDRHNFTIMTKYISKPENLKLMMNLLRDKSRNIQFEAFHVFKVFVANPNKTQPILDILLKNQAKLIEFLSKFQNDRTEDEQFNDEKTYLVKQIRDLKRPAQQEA
T2 sequence (Q9NYY3 whole entry): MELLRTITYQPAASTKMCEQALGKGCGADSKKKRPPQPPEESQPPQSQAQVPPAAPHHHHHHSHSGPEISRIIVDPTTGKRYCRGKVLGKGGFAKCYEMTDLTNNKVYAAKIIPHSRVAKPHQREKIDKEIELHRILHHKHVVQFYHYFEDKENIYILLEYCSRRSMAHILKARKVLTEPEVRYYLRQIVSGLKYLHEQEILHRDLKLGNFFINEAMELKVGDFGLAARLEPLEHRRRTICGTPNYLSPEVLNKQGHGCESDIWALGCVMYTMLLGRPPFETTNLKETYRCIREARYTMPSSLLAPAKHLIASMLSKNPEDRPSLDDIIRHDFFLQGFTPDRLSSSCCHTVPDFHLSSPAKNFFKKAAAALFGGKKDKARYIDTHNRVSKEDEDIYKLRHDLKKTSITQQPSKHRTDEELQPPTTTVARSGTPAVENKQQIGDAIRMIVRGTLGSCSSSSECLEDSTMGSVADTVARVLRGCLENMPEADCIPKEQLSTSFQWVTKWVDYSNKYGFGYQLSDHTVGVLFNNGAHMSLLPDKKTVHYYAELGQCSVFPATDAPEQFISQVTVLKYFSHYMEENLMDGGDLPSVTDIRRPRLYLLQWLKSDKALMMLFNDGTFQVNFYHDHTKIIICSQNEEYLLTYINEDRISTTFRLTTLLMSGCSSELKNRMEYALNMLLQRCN
T35 sequence (P16234 24-1089): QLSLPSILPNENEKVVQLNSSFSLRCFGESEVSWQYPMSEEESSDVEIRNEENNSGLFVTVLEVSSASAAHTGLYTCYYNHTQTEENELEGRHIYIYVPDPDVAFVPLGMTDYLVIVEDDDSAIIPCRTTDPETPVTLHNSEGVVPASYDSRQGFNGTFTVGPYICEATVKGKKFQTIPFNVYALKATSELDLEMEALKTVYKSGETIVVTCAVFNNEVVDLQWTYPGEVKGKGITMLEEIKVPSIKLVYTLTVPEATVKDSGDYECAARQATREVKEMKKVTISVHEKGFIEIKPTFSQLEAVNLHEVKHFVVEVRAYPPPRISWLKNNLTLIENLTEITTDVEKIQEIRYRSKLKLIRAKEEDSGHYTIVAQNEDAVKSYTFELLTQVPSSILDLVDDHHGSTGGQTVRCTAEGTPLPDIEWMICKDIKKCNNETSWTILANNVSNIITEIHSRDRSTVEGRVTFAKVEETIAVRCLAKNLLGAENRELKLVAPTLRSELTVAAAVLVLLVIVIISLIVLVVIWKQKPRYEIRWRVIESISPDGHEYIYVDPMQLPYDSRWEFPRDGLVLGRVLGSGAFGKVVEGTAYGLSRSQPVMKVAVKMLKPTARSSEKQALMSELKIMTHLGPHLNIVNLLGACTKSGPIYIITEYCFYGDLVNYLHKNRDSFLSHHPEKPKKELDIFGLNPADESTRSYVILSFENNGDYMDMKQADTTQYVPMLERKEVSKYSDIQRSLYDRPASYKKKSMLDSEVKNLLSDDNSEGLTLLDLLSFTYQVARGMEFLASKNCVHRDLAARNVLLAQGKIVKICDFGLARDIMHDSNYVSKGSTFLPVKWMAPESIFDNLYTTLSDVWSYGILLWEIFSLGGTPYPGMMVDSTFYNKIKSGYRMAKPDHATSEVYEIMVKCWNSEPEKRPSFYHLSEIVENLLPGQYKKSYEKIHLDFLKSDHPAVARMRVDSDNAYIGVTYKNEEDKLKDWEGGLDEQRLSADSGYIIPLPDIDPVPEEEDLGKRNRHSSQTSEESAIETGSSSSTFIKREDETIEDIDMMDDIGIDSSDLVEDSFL
T10 sequence (Q86UE8 whole entry): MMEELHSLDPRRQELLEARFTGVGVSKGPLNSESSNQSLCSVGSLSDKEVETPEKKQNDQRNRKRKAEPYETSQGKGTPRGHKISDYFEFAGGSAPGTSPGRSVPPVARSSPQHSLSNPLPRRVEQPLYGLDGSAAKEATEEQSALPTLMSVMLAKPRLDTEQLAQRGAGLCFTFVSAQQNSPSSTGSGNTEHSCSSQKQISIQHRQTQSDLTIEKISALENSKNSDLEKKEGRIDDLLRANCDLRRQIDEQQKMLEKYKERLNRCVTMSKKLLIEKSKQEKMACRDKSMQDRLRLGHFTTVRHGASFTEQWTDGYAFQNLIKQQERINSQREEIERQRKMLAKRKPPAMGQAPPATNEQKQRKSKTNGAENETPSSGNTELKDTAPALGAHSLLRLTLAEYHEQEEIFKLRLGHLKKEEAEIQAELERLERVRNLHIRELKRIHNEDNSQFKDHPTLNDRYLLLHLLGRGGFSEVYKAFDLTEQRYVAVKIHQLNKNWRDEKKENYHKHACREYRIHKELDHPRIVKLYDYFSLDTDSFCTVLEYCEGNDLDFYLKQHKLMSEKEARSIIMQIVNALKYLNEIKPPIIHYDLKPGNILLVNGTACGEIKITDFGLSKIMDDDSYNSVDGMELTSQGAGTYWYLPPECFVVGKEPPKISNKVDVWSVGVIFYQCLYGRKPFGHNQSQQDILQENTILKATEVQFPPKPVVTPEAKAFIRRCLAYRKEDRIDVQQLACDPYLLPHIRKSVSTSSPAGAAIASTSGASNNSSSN
T3 sequence (O43318 1-303 limits assumed): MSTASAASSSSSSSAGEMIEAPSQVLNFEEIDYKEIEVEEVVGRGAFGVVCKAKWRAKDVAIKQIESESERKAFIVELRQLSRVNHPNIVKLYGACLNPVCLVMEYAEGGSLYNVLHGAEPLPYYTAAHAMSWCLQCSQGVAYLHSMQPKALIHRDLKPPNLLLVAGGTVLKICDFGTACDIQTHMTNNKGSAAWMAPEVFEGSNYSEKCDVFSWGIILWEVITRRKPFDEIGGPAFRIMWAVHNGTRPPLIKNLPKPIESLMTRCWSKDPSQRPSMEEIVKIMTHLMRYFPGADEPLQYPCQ

Compound: COCc1ccc2cccc(NC(=O)Nc3c(C)c(-c4cnn(C)c4)nn3-c3ccccc3)c2c1 [Example 16, 1-(1′,4-dimethyl-1-phenyl-1H,1′H-[3,4′-bipyrazol]-5-yl)-3-(7-(methoxymethyl)naphthalen-1-yl)urea]
- Avg POC (LKB1): 111 POC
- Avg POC (Plk2): 104.5 POC
- Avg POC (TAK1): 110.5 POC
- Avg POC (CSK): 132 POC
- Avg POC (CDK9/cyclinT1): 114.5 POC
- Avg POC (CK2): 114.5 POC
- Avg POC (MKK4_m): 120.5 POC
- Avg POC (FAK2): 117.5 POC
- Avg POC (CK1gamma2): 124.5 POC
- Avg POC (TLK2): 106 POC
- Avg POC (DAPK3): 120 POC
- Avg POC (FAK): 113.5 POC
- Avg POC (CK1_y): 105 POC
- Avg POC (MRCKalpha): 143.5 POC
- Avg POC (STK33): 106 POC
- Avg POC (PTK5): 118.5 POC
- Avg POC (CDK7/cyclinH/MAT1): 121.5 POC
- Avg POC (AKT2): 217.5 POC
- Avg POC (AKT3): 130.5 POC
- Avg POC (eEF-2K): 145.5 POC
- Avg POC (HIPK3): 109.5 POC
- Avg POC (Flt1): 115.5 POC
- Avg POC (Txk): 131 POC
- Avg POC (SRPK1): 119 POC
- Avg POC (SRC): 121.5 POC
- Avg POC (CAMK2d): 106.5 POC
- Avg POC (Met): 130 POC
- Avg POC (PDK1): 117.5 POC
- Avg POC (CDK3/cyclinE): 125 POC
- Avg POC (DMPK): 110.5 POC
- Avg POC (PKCdelta): 111.5 POC
- Avg POC (PAK2): 121 POC
- Avg POC (ERK1): 110 POC
- Avg POC (PrKX): 134 POC
- Avg POC (JNK3): 132 POC
- Avg POC (PDGFRalpha): 132 POC
- Avg POC (CDK6/cyclinD3): 121 POC
- Avg POC (ZAP-70): 118 POC
- Avg POC (Ron): 117 POC
- Avg POC (MAPKAP-K5): 122.5 POC
- Avg POC (ULK2): 102 POC
